# In patent publication US4889871A, “Alkoxy-substituted dihydrobenzopyran-2-carboxylate derivatives” (G. D. Searle & Co., priority 1988, dated 1989):
# Where two headings read alike, the source gives them in different places.
# Columns and labels:
# LTB4 receptor = molecular target: T1, LTB4 receptor (Homo sapiens, UniProt Q15722); assay: LTB4 receptor binding assay ((3H) LTB4, human neutrophils); settings: Table 1
# T1 construct: Neutrophils were purified from venous blood of normal human donors; endogenous in cells; host or cells: purified human blood neutrophils (intact cells)
# T1 sequence (Q15722 whole entry): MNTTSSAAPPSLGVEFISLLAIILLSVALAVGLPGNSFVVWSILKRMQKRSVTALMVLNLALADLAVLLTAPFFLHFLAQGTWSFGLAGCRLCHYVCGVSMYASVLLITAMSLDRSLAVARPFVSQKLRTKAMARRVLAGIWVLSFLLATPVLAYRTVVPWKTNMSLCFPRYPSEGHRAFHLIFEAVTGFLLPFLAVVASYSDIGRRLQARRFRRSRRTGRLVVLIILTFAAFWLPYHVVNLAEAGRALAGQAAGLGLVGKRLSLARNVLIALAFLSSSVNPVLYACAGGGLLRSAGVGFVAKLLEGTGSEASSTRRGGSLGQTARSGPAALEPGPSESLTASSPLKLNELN
# Method: Neutrophils (4-6×10^6) in 1 ml Hanks' balanced salt solution containing 10 mM HEPES buffer (HBSS), pH 7.4 and 30 μM nordihydroguaiaretic acid were incubated with 0.6×10^-9 M (^3 H) LTB4 in the presence or absence of test compounds. The incubation was carried out at 0° C. for 45 minutes and terminated by adding 5 ml of ice-cold HBSS followed by rapid filtration of incubation mixture under vacuum through GF/C glass fiber filters. The filters were further washed with 10 ml HBSS and radioactivity was determined. Specific binding was defined as the difference between total binding and nonspecific binding which was not displaced by 10^-7 M unlabeled LTB4. All data refer to specific binding.
# human neutrophils [1] = assay: Human neutrophil degranulation assay (LTB4-induced, myeloperoxidase release); assay type: cell-based; settings: Table 1, LTB4 (5×10^-8 M)
# Method: Neutrophils were purified from venous blood of normal human donors using standard techniques of dextran sedimentation, centrifugation on Ficoll-paque® (Pharmacia) or Histopaque® sterile solution (Sigma) and hypotonic lysis of erythrocytes (Boyum, A., Isolation of Leukocytes From Human Blood: Further Observations. Scand. J. Lab. Clin. Invest., 21 (Suppl. 97): 31, 1968). The purity of isolated neutrophils was >95%.
# Neutrophil degranulation was determined by measuring the release of myeloperoxidase activity into the incubation medium. Neutrophils (3×10^6) in 1 ml HBSS solution were preincubated with cytochalasin B (5 μg) at 37° C. for 5 minutes, followed by preincubation with test compounds for 7 minutes. Neutrophils were then incubated for 2 to 20 minutes with either LTB4 (5×10^-8 M) or the chemotactic peptide f-met-leu-phe (5×10^-6 M) to induce degranulation. Following incubation, samples were centrifuged and myeloperoxidase was extracted from the cell pellets by sonication in phosphate buffer containing 0.4% Triton X-100. Triton X-100 was also added to the supernatants to a concentration of 0.4%. The supernatants and the pellet - extracts were then assayed spectrophotometrically for myeloperoxidase activity by determining the rate of decomposition of H2 O2 with o-dianisidine as hydrogen donor as described by Renlund, et al. (Renlund, D. G., MacFarlane, J. L., Christensen, R. D., Lynch, R. E., and Rothstein, G., A Quantitative And Sensitive Method For Measurement Of Myeloperoxidase, Clinical Research 28:75A, 1980). Myeloperoxidase activity released into the supernatant was expressed as the percent of the average total activity (pellet plus supernatant).
# human neutrophils [2] = assay: Modified Boyden chamber chemotaxis (LTB4, human neutrophils); assay type: cell-based; settings: Neutrophil
# Method: Human neutrophils were isolated from citrated peripheral blood using standard techniques of dextran sedimentation, followed by centrifugation on Histopaque® sterile solution (Sigma) or Ficoll-paque® (Pharmacia) and hypotonic lysis of erythrocytes. A final cell suspension of 3.4×10^6 neutrophils/ml of HEPES-buffered Hanks balanced salt solution (HBSS, pH 7.3) was added to the upper well (0.8 ml) of a modified Boyden chamber (blind well). The lower well (0.2 ml), separated by a polycarbonate membrane (Nuleopore Corp.), contained HBSS or 3×10^-8 M LTB4 in the presence of absence of test compound. Following a 90 minute incubation at 37° C. in 5% CO2 -95% air, cells from the lower well were lysed and nuclei counted in a Model S-Plus-IV Coulter Counter. Percent inhibition was calculated from cell counts corrected for random migration by subtracting the mean of the HBSS control.
# guinea pig ileum = molecular target: T2, guinea pig ileum (Cavia porcellus, UniProt Q2NNR5); assay: LTD4 antagonism in guinea pig ileum (contraction); settings: for Kb: read-out: Guinea Pig Ileum Contraction pA2 (converted)
# T2 construct: from tissue; host or cells: guinea pig ileum segments
# T2 sequence (Q2NNR5 1-340): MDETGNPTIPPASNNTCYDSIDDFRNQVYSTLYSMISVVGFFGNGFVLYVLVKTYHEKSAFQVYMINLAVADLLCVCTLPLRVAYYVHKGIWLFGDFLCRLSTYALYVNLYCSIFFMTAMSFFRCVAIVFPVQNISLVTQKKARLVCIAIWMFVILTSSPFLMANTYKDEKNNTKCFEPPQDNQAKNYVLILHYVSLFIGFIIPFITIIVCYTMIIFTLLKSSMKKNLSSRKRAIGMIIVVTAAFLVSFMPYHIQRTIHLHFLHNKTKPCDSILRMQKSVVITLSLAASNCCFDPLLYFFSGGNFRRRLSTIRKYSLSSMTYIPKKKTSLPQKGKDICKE
# Method: Fresh segments of guinea pig ileum were suspended in 2 ml. tissue baths containing oxygenated modified Tyrodes solution. […] The ileum segments were washed and rested between exposures to agonist. Following this, the tissues were incubated with a single concentration of test compound and the agonist dose-response procedure was repeated. The dose ration is a measure of the antagonist's ability to shift the agonist dose-response curve to the right. It is derived as the concentration of agonist necessary to reach a given response level in the present (A') versus the absence (A) of antagonist. For example, if the test concentration of compound had no effect on the agonist-induced response (A'=A) the dose-ratio would approximate 1. […] One dose-ratio value is determined for each strip of ileum used to test antagonist. […] Schild analysis examines the linearity of the function described by the dose-ratios written as log (A'/A) versus antagonist concentration. If linearity is confirmed and the slope approximates -1, inhibition is considered to be competitive. […] This value is considered to be a measure of the affinity of the competitive antagonist.
# LTD4 receptor = molecular target: T3, LTD4 receptor (Cavia porcellus, UniProt Q2NNR5); assay: LTD4 receptor binding assay using guinea pig lung membrane preparations; settings: for Receptor Binding LTD4 IC50: Table 1, results are from Table 3, 10^-5 M
# T3 construct: from tissue; host or cells: lung membranes of male Hartley guinea pigs
# T3 sequence (Q2NNR5 1-340): T2 sequence (Q2NNR5 1-340)
# Method: MEMBRANE PREPARATIONS: For each membrane preparation, 10-11 male Hartley guinea pigs, weighing less than 350 gm, were sacrificed by guillotine. The lungs were rapidly removed and placed in ice-cold 50 mM Trisma 7.0 buffer. After all the lungs were collected, each was probed free of bronchial tissue to at least the level of tertiary branching as observed through a dissecting lamp. The tissue was minced with a razor blade on a damp paper towel and placed into fresh ice-cold Trisma 7.0 buffer. When all the tissues had been processed, they were pooled, drained and weighed. Nine volumes of cold buffer were added and the tissue was polytroned for 6-10 second bursts with a 1 minute cool down period in an ice bath between each burst. The homogenate was filtered through a gauze pad and centrifuged at 1085× g for 15 minutes at 4° C. Supernatants were saved and centrifuged at 40,000× g for 20 minutes at 4° C. This time, supernatants were discarded and the pellets were resuspended in 30-35 ml fresh Trisma 7.0 buffer by 1-10 second bursts with the polytron. The materials were centrifuged again at 40,000× g. Supernatants were again discarded. Each pellet was resuspended again with approximately 7 ml buffer. All this material was pooled into a 100 ml polypropylene container and stirred with a magnetic stirring bar. The tubes were rinsed with small amounts of buffer and the rinse was added to the membrane preparation. The homogenized membranes were aliquoted into 1.5 ml microfuge tubes and frozen at -70° C. Three aliquots were submitted for protein determinations by FPB (fluorescamine protein binding) assay.
# Unless otherwise indicated, all binding experiments were performed in a final incubation volume of 250 μl. […] Both materials were received in solutions. […] Both solutions were brought to appropriate assay concentrations by dilution in assay buffer consisting of 50 mM Trisma 7.4 with 5 mM L-cysteine and 20 mM CaCl2. Membranes were also diluted with this assay buffer. […] Diluent was added to all other appropriate control tubes. Incubations were conducted for 30 minutes at 25° C. in a shaking water bath. Termination of the reaction was achieved by pouring the incubate over 2.5 cm Whatman GF/C filters soaked in assay buffer and set over the ports of Millipore filter vacuum manifolds. Filters were rinsed with 4 ml ice cold assay buffer 3 times. The filters were removed, placed in 10 ml Aquasol scintillation cocktail and allowed to cool in the dark for 2 hours prior to counting. All samples were corrected for background and isotope decay before converting DPM determination to mass.
# These values were logit-transformed and linear regression was performed on the dose-response data. All dose-response sets used to calculate IC50 values contained data from 3-6 compound concentrations. […] IC50 values were calculated from the regression equation for the line.
# male guinea pig lung homogenate which was aliquoted and stored at
# -70° C. The particular preparation used to test the compounds of
# Protein concentrations in these assays were adjusted
# to provide aproximately 0.1 nM receptor in the presence of lnM ^3
# HLTD4. Incubation was conducted for 30 min.
# at 24° C. and filtration methods were used to separate bound from
# tested were intially solubilized in DMSO. Each compound was evaluated at
# dose of 10 μM (10^-5 M) in triplicate in 2 separate assays. The
# [3] = read-out: LTD4 Receptor Binding Activity
# [4] = read-out: LTD4 Receptor Binding Percent Inhibition, Test #1, triplicate, 30 min, 24° C.
# [5] = read-out: LTD4 Receptor Binding Percent Inhibition, Test #2, triplicate, 30 min, 24° C.
IC50 (LTB4 receptor) [µM],IC50 (human neutrophils [1]) [µM],IC50 (human neutrophils [2]) [µM],Kb (guinea pig ileum) [µM],Receptor Binding LTD4 IC50 (LTD4 receptor),inhibition at 10 µM (LTD4 receptor; [3]) [%],inhibition at 10 µM (LTD4 receptor; [4]) [%],inhibition at 10 µM (LTD4 receptor; [5]) [%],"Guinea Pig Ileum Contraction pA2 (guinea pig ileum; Table 2, LTD4 agonist)",SMILES
0.5,0.04,1.7,0.316,Inactive,< 45,13,23.5,–,"CCCc1c(OCCCOc2ccc(C(C)=O)c(OC)c2CCC)ccc2c1OC(CCC(=O)O)CC2 (stereo not drawn) [Example 20, 7-[3-(4-acetyl-3-methoxy-2-propylphenoxy)propoxy]-3,4-dihydro-8-propyl-2H-1-benzopyran-2-propanoic acid]"
0.5,1.5,6.6,–,–,–,–,–,Inactive,"CCCc1c(OCCCCCOc2ccc(C(C)=O)c(OC)c2CCC)ccc2c1OC(C(=O)O)CC2 (stereo not drawn) [Example 15, 7-[[5-(4-acetyl-3-methoxy-2-propylphenoxy)pentyl]oxy]-3,4-dihydro-8-propyl-2H-1-benzopyran-2-carboxylic acid]"
–,–,–,0.0251,–,–,–,–,–,CCCc1c(OCCCOc2ccc3c(c2CCC)OC(C(=O)O)CC3)ccc(C(C)=O)c1O (stereo not drawn) [reference compound]
0.5,3.7,3.6,0.182,Inactive,< 45,28.9,34.4,–,"CCCc1c(OCCCOc2ccc3c(=O)cc(C(=O)O)oc3c2CCC)ccc(C(C)=O)c1OC [Example 7, 7-[3-(4-acetyl-3-methoxy-2-propylphenoxy)propoxy]-4-oxo-8-propyl-4H-1-benzopyran-2-carboxylic acid]"
